The text below walks through data of patent publication US20020168325A1, “NOS inhibitors for treatment of wrinkles” (priority 2001, published 2002).

“Also recorded” adds a separate entry of the source.

The test system of data set [1] is ears of female Balb/C mice. As to the kind of experiment: Ear swelling response (skin irritation from topical application). The data set is classed as in vivo. The protocol: To examine the potential for irritation from topical application of a NOS inhibitor to the skin, measurements of ear swelling response were performed as follows: The thickness of both ears of each of three female Balb/C mice, 10 weeks of age, was measured with a thickness gage (Mitsutoyo Corp.). Ten microliters of 1% L-NAME (L-N^G-nitro-arginine methyl ester) in 70% ethanol in water was applied to each right ear, and 10 microliters of 70% ethanol in water was applied to each left ear as a control. Ear thickness was monitored over two consecutive days following administration of the solutions.

The subject of data set [2] is back skin of mice (HR-1 hairless strain). The data set can be described thus: Wrinkle formation caused by UVB exposure, analysis of back skin replicas (Wrinkle Analyzer 3D Pro). The data set is classed as in vivo. An excerpt: The effect of a compound on the formation or appearance of wrinkles can be evaluated qualitatively, e.g., by visual inspection, or quantitatively, e.g., by computer assisted measurements of wrinkle morphology. Preferably, wrinkle morphology is quantitatively analyzed. Examples of quantitative methods for measuring wrinkles include, but are not limited to, the optical cut technique employing a laser beam, as proposed by Hoshino (1992) Pixel 45:121, herein incorporated by reference; or methods which analyze three-dimensional skin replicas, e.g., the Shiseido Wrinkle Analyzer 3D Pro system (Takasu et al. (1996) J Soc Cosmet Chem Japan 29:394-405; Japanese Published Patent Application No. 07-113623, published May 2, 1995 (corresponds to U.S. patent application Ser. No. 08/364,346)). The SILFLO (Flexico Development Ltd.) system or a similar system can be used to take a replica of the skin. Irregularities on the surface of the skin replica, i.e., wrinkles, are analyzed, e.g., with the Shiseido Wrinkle Analyzer 3D Pro or a similar system, to provide three-dimensional shape data from the heights at points on a two-dimensional plane corresponding to the skin. According to the three-dimensional data, the length, width, depth, area, and volume of each wrinkle is calculated. According to the parameters for regular and fine wrinkles described herein, different classes of wrinkles, including the subclasses of regular and fine wrinkles, can thus be individually recognized and scored.
To examine the effect of L-NAME on wrinkle formation, wrinkle measurements experiments were performed on the back skin of mice (HR-1 hairless strain, female, 5 weeks of age, n=3) by taking and analyzing skin replicas.
Mice were exposed to UVB irradiation three times a week for ten weeks beginning with 0.3mW/cm^2. The total exposure was 4.662J/cm^2. 100 microliters of 1% L-NAME in 70% ethanol, or 70% ethanol as a control, was applied after each UVB irradiation. Three days after the final UVB irradiation, skin replicas of the dorsal area were taken by means of SILFLO (Flexico Development Ltd.). Replicas were evaluated by the Wrinkle Analyzer 3D Pro developed by Shiseido (essentially as described in Takasu et al. (1996) J Soc Cosmet Chem Japan 29:394-405). Wrinkdle volume and width of regular and fine wrinkles was calculated through three-dimensional data.

Setting [3] is: UVB three times a week for ten weeks, 100 microliters of 1% L-NAME in 70% ethanol after each irradiation, replicas three days after final UVB.

Take `COC(=O)[C@@H](N)CCCNC(=N)N[N+](=O)[O-]` [L-NAME, L-N^G-nitro-arginine methyl ester]: the “Difference in ear thickness between control and treated ears” value in data set [1] (1% L-NAME in 70% ethanol vs 70% ethanol control, over two days) is “no statistically significant difference in ear thickness”. For the same compound, the “Skin inflammation / other signs of irritation (redness, flaking)” value in data set [1] (1% L-NAME in 70% ethanol, topical on ear) is recorded as “did not cause skin inflammation; also recorded: no other signs of skin irritation or inflammation”. For the same compound, the “Ear thickness DAY 0, AVE ± SD” value in data set [1] (Day 0, right ears, 10 microliters of 1% L-NAME in 70% ethanol topical, three female Balb/C mice) turned out to be 26.33 ± 0.58 × 0.01 mm. In addition, the “Ear thickness DAY 1, AVE ± SD” value in data set [1] (Day 1 after application, right ears, 10 microliters of 1% L-NAME in 70% ethanol topical) is recorded as 25.33 ± 0.58 × 0.01 mm. The “Ear thickness DAY 2, AVE ± SD” value in data set [1] (Day 2 after application, right ears, 10 microliters of 1% L-NAME in 70% ethanol topical) is recorded as 26.33 ± 0.58 × 0.01 mm. Besides, in data set [2] (1% L-NAME in 70% ethanol on back skin of mice, compared to control mice), the “Effect on fine wrinkle formation caused by UVB exposure” value is given as “prevented the formation of fine wrinkles; also recorded: reduction in fine wrinkles”. Besides, in data set [2] (setting [3]), the “Wrinkle volume, fine wrinkles” value was 175,295 pixels; the “Wrinkle volume, regular wrinkles” value is reported as 896,863 pixels; the “Wrinkle volume, total (regular + fine)” value is recorded as 1,072,158 pixels.
